Reference: the NIST ThermoML archive (doi:10.1021/je901026b)
Numbers after ± are expanded uncertainties.

What was measured:
[1] = Liquid; for mass density: 298.15 K, 101.33 kPa; for vapor or sublimation pressure: Ebulliometric method (Recirculating still)
[2] = refractive index (Na D-line) (dimensionless); settings: 293.15 K; 101.33 kPa; Liquid; Standard Abbe refractometry

| mass density [1] [kg/m3] | vapor or sublimation pressure ([1]; 318.13 K) [kPa] | vapor or sublimation pressure ([1]; 328.15 K) [kPa] | vapor or sublimation pressure ([1]; 338.15 K) [kPa] | refractive index [2] | vapor or sublimation pressure ([1]; 328.2 K) [kPa] | vapor or sublimation pressure ([1]; 338.28 K) [kPa] | SMILES |
| --- | --- | --- | --- | --- | --- | --- | --- |
| 687.8 ± 1.3 | 15.85 ± 0.11 | 23.68 ± 0.14 | 34.4 ± 0.19 | 1.38894 ± 0.00045 |  |  | CC(C)CC(C)(C)C [2,2,4-trimethylpentane] |
| 765.85 ± 0.66 | 23.96 ± 0.14 | 35.45 ± 0.19 | 51.05 ± 0.25 | 1.38614 ± 0.00041 | 35.45 ± 0.19 | 51.05 ± 0.25 | CCC(C)(C)OC [2-methoxy-2-methylbutane] |
| 780.44 ± 0.64 | 17.95 ± 0.12 |  |  |  | 30.35 ± 0.17 | 48.93 ± 0.24 | CC(C)(C)O [2-methylpropan-2-ol] |
